{
  "source": "patent US11198741B2",
  "about": "“Medicines for topic use based on sulfated hyaluronic acid as activating or inhibiting agent of the cytokine activity” (Fidia Farmaceutici S.p.A., priority 2009, dated 2021)",
  "molecules": {"B1": {"name": "PLASMIN: enzyme of the group of hydrolases degrading fibrin; control treatment of acknowledged fibrinolytic activity (protein, UniProt P00747 20-580; P00747 581-810, looked up)", "Plasmin heavy chain A": "EPLDDYVNTQGASLFSVTKKQLGAGSIEECAAKCEEDEEFTCRAFQYHSKEQQCVIMAENRKSSIIIRMRDVVLFEKKVYLSECKTGNGKNYRGTMSKTKNGITCQKWSSTSPHRPRFSPATHPSEGLEENYCRNPDNDPQGPWCYTTDPEKRYDYCDILECEEECMHCSGENYDGKISKTMSGLECQAWDSQSPHAHGYIPSKFPNKNLKKNYCRNPDRELRPWCFTTDPNKRWELCDIPRCTTPPPSSGPTYQCLKGTGENYRGNVAVTVSGHTCQHWSAQTPHTHNRTPENFPCKNLDENYCRNPDGKRAPWCHTTNSQVRWEYCKIPSCDSSPVSTEQLAPTAPPELTPVVQDCYHGDGQSYRGTSSTTTTGKKCQSWSSMTPHRHQKTPENYPNAGLTMNYCRNPDADKGPWCFTTDPSVRWEYCNLKKCSGTEASVVAPPPVVLLPDVETPSEEDCMFGNGKGYRGKRATTVTGTPCQDWAAQEPHRHSIFTPETNPRAGLEKNYCRNPDGDVGGPWCYTTNPRKLYDYCDVPQCAAPSFDCGKPQVEPKKCPGR", "Plasmin light chain B": "VVGGCVAHPHSWPWQVSLRTRFGMHFCGGTLISPEWVLTAAHCLEKSPRPSSYKVILGAHQEVNLEPHVQEIEVSRLFLEPTRKDIALLKLSSPAVITDKVIPACLPSPNYVVADRTECFITGWGETQGTFGAGLLKEAQLPVIENKVCNRYEFLNGRVQSTELCAGHLAGGTDSCQGDSGGPLVCFEKDKYILQGVTSWGLGCARPNKPGVYVRVSRFVTWIEGVMRNN", "modifications": "Plasmin"}},
  "key": {"[1]": {"system": "Vesicular stomatitis virus: VSV", "format": "cell-based"}, "IL-12 [2]": {"system": "IL-12", "assay": "Gene expression of IL-12 in human synoviocytes (PCR Real Time)", "format": "cell-based", "conditions": "3 days of treatment, FIG. 2: 0.5 mg/ml, vs control treated with non-sulfated HA 200 KD", "procedure": "(§1) Human synoviocytes previously expanded in vitro and maintained in a culture at 37° C. with a medium of DMEM containing 10% of FCS, were seeded at a concentration of 20,000 cells per well (synoviocytes are cells capable of producing various types of cytokines, and are therefore normally used for this type of experimental test). […] After 3 days of treatment, the PCR Real Time was effected to evaluate the gene expression of IL-10 and IL-12: the cell RNA was extracted using the “Trizol” method, following the indications of the supplier (TRIZOL reagent, LIFE Technologies, GIBCO BRL). In short, the cells were lysed by the addition of 1.0 ml of Trizol and the total RNA was quantified by measuring its absorbance at 260 nm. The appropriate primers were selected for each gene to be amplified, using the software Primer3 (Roche Molecular Diagnostics, Pleasanton, Calif., USA). The gene expression was evaluated by means of PCR Real Time effected with a Rotor-gene TM5500 (Corbett research, Sydney, Australia). The PCR reactions were effected using primers at […] and SYBR Green (Invitroge, Carlsbad, Calif., USA) at 40 cycles of 15 s at 95° C., and 1 min. at 60° C. The value of “Fluorescence thresholds (Ct)” was automatically determined by the software, evaluating an amplification coefficient for the genes studied between 92 and 110%. […]"}, "[3]": {"system": "Herpes Simplex Virus-1 (HSV-1: KOS, F and McIntyre strain)", "assay": "Inhibition of viral cytopathogenicity in E6SM fibroblast cells, HSV-1", "format": "cell-based", "conditions": "2nd day of incubation, numbers only in FIG. 10"}, "IL-2": {"system": "IL-2", "assay": "Protein synthesis of IL-2 in human PBMC (SearchLight array)", "conditions": "not stimulated or stimulated with LPS or PHA (10 μg/ml), 24 hours, FIG. 6: HAS1 0.1 mg/ml, HAS3 1 mg/ml, vs HA", "protocol": "(§2) For these experimentations, mononucleate cells of human peripheral blood (PBMC) were adopted, deriving from various donors for evaluating the effect of HAS on the production of the cytokines listed above, using:\n(§3) The separation of the PBMC (Bøyum A., Scand J Clin Lab Invest 21 Suppl, 1968, 97:77-89) was effected using the product Ficoll-Paque PLUS (GE Healthcare) and following the protocol indicated by the supplier. At day zero 100,000 cells were plated per well (using plates with 96 wells) in 200 μl of medium RPMI 1640, to which 10% of fetal bovine serum, HEPES 10 mM, Glutamine 2 mM, 1% Penicillin-Streptomycin 100 U/ml, had been added. […] The cells were treated separately with the three compounds at a concentration of 0.1 mg/ml or 1 mg/ml. After 24 hours of incubation at 37° C. (5% CO2), 100 μl of supernatant were taken from each well in order to analyze the production of IL-2, IL-7, IL-10 and IL-12.\n(§4) The quantification of the inflammation mediators was effected by means of the SearchLight® technology, using a Custom Human 9-flex Array plate following the protocol indicated by the supplier in the technical card."}, "[4]": {"system": "Cytomegalovirus (CMV: AD-169 and Davis strain)", "assay": "Inhibition of Cytomegalovirus plaque formation in HEL cells", "format": "cell-based", "conditions": "numbers only in FIG. 11", "procedure": "The activity of the samples tested was determined by evaluating the inhibition of the cytopathogenicity determined by Cytomegalovirus (CMV: AD-169 and Davis strain) using the previous protocol. The antiviral activity was tested vs HEL cells (pulmonary embryonic cells) and was expressed as the concentration required for inhibiting the number of plaques formed by the above virus by 50%."}, "IL-12 [5]": {"system": "IL-12", "assay": "Protein synthesis of IL-12 in human PBMC (SearchLight array)", "conditions": "not stimulated or stimulated with LPS or PHA (10 μg/ml), 24 hours, FIG. 8: 1 mg/ml, vs HA", "protocol": "as §2, §3, §4"}, "[6]": {"system": "Herpes Simplex Virus-2 (HSV-2: G, 196 and Lyons strain)", "assay": "Inhibition of viral cytopathogenicity in E6SM fibroblast cells, HSV-2", "format": "cell-based", "conditions": "2nd day of incubation, numbers only in FIG. 10"}, "IL-7": {"system": "IL-7", "assay": "Protein synthesis of IL-7 in human PBMC (SearchLight array)", "conditions": "not stimulated or stimulated with LPS or PHA (10 μg/ml), 24 hours, FIG. 7: 1 mg/ml, vs HA", "protocol": "as §2, §3, §4"}, "IL-10": {"system": "IL-10", "assay": "Gene expression of IL-10 in human synoviocytes (PCR Real Time)", "format": "cell-based", "conditions": "3 days of treatment, FIG. 1: HAS1 0.5 mg/ml, HAS3 0.1 mg/ml, vs control treated with non-sulfated HA 200 KD", "procedure": "as §1"}, "TNF receptor": {"system": "TNF receptor", "assay": "Inhibition of the binding of 125I-TNF to its receptor in U937 cells (Radioligand Binding)", "set-up": "species or system human", "conditions": "125I-TNF 0.028 nM, sample 1 mg/ml, 4° C. 3 hours, medium and low MW", "text": "These experiments were effected to evaluate the effectiveness of the samples tested (prepared according to Examples 1-4) on the capacity of inhibiting the binding of TNF to its receptor expressed by cells of the I.S. normally used in vitro for this type of experiment, carried out with iodinated cytokine components for an evaluation in Radioligand Binding assays. The experimental procedure was effected as described in Baglioni C. et al., J Biol Chem, 1985, 260:13395-13397. In short, the line of human histiocytes of the lymphoma U937 was used, with characteristics of monocytes sensitive to the cytotoxic activity of TNF, expressing its relative receptor. […] At the end of the incubation, the cells were centrifuged with dibutylphthalate/dinonylphthalate 2/1 and the pellet obtained was counted in a γ-counter."}, "fibrin clot": {"target": "T1, fibrin clot (Homo sapiens, UniProt P02671+P02675+P02679)", "T1 sequence (P02671 20-644 isoform P02671-2 limits assumed)": "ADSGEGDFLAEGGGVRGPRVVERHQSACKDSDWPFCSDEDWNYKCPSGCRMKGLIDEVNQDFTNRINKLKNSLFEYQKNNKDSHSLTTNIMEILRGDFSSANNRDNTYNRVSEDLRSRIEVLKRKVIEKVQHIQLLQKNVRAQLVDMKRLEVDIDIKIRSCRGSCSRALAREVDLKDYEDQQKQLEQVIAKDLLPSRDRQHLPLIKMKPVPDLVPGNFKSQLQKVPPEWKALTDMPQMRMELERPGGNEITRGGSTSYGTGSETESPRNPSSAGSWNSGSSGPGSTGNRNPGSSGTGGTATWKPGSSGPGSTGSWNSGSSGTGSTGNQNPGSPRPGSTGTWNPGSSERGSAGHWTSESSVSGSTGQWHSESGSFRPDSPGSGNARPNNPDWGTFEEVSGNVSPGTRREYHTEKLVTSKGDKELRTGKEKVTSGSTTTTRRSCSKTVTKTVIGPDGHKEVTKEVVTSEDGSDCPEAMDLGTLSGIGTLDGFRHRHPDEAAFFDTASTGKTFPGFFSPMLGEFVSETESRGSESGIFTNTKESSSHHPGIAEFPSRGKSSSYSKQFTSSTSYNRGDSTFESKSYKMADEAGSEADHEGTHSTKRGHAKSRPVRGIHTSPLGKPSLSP", "T1 sequence (P02675 45-491 limits assumed)": "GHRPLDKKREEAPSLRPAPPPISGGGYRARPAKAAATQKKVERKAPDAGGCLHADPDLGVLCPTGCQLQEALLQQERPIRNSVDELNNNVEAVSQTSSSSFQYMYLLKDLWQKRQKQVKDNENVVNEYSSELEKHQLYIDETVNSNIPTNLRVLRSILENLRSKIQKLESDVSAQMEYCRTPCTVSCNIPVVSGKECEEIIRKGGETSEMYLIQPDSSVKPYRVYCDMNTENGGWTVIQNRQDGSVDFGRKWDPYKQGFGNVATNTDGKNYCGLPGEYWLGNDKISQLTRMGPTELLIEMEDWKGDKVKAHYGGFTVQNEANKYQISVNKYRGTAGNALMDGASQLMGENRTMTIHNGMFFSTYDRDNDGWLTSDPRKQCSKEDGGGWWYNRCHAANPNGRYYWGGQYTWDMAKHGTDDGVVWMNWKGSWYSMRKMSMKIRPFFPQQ", "T1 sequence (P02679 27-437 isoform P02679-2 limits assumed)": "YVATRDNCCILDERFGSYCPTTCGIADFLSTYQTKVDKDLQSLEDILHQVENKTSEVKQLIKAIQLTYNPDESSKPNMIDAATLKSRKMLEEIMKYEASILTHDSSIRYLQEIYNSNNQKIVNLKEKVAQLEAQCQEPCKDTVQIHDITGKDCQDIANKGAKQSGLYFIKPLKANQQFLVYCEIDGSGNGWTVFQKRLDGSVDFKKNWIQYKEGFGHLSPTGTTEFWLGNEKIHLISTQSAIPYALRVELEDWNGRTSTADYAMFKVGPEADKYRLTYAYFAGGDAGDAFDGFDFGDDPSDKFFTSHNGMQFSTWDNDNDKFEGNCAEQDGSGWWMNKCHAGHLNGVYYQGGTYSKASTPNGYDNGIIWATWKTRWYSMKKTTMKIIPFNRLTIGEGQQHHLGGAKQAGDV", "assay": "In vitro fibrinolytic activity: dissolution of fibrin clot in coagulated plasma (absorbance at 405 nm)", "format": "biochemical", "conditions": "37° C.", "procedure": "The evaluation of the fibrinolytic properties of the products subjected to the test was compared with the acknowledged fibrinolytic activity of the plasmin. In particular, the dissolution rate of the fibrin network and formation of soluble products of the fibrin degradation (FDP), was evaluated.\nIn order to test the fibrinolytic effectiveness of the products subjected to testing, the blood samples were distributed in various test-tubes in which the clot formation was induced.\nThe formation of FDP was then evaluated after the addition of:\nThe freshly removed blood samples were distributed in various test-tubes containing sodium citrate in a ratio of 9:1. The test-tubes were immediately centrifuged at 3,000 rpm for 5 minutes. The plasma obtained was transferred to a new test-tube and immediately used for effecting the FDP evaluation.\nThrombin (300 mU/ml), preheated to 37° C. was added to the plasma samples, as activator of the fibrinogen in inducing the formation of the clot.\nThe following were added to the different cuvettes containing the fibrin clot:\na plasmin solution 0.5 mU, 5 mU, 50 mU, 500 mU and 1 U\nsolutions of HAS3 at concentrations of 25 mg/ml, 50 mg/ml, 100 mg/ml, 150 mg/ml and 200 mg/ml.\nThe absorbance variation at 405 nm for 60 sec. was evaluated spectrophotometrically for each cuvette. The reaction was left to proceed until the complete dissolution of the clot.\nCoagulated plasma, plasmin solution and a solution of HAS3 200 KD and HAS3 20 KD were mixed in a ratio of 1:1 v/v and maintained at an operating temperature of 37° C."}},
  "note": "Like-named read-outs stand apart in the source and are kept apart here.",
  "data": [
    {"molecule": "Nc1nc2c(ncn2COCCO)c(=O)[nH]1", "note": "[acyclovir, Acyclovir, reference compound]", "values": [
      {"measurement": "antiviral activity (inhibition of the cytopathogenicity of the virus) vs VSV", "setting": "[1]; E6SM cells, 2nd day of incubation, numbers only in FIG. 10", "value": "inactive"}
    ]},
    {"molecule": "sulfated hyaluronic acid degree 1 [HAS1]", "values": [
      {"measurement": "gene expression of IL-12 (synthesis of its mRNA)", "setting": "IL-12 [2]", "value": "halving the synthesis of its mRNA"},
      {"measurement": "antiviral activity (inhibition of the cytopathogenicity of the virus) vs HSV-1", "setting": "[3]", "value": "powerful antiviral action"},
      {"measurement": "synthesis of IL-2", "setting": "IL-2", "value": "significantly reducing"},
      {"measurement": "antiviral activity vs Cytomegalovirus (inhibition of the number of plaques)", "setting": "[4]", "value": "clear and significant positive result"},
      {"measurement": "antiviral activity (inhibition of the cytopathogenicity of the virus) vs VSV", "setting": "[1]", "value": "very powerful antiviral activity"},
      {"measurement": "synthesis of IL-12", "setting": "IL-12 [5]", "value": "significantly reducing"},
      {"measurement": "antiviral activity (inhibition of the cytopathogenicity of the virus) vs HSV-2", "setting": "[6]", "value": "powerful antiviral action"},
      {"measurement": "synthesis of IL-7", "setting": "IL-7", "value": "significantly reducing"},
      {"measurement": "gene expression of the cytokine IL-10", "setting": "IL-10", "value": "significant increase"},
      {"measurement": "inhibition of the binding of TNF to its receptor", "setting": "TNF receptor", "value": 100, "unit": "%"}
    ]},
    {"molecule": "B1", "values": [
      {"measurement": "fibrinolytic activity (mAbs/min)", "setting": "fibrin clot; plasmin 0.5 mU", "value": 1, "unit": "mAbs/min"},
      {"measurement": "fibrinolytic activity (mAbs/min)", "setting": "fibrin clot; plasmin 1 U", "value": 190, "unit": "mAbs/min"},
      {"measurement": "fibrinolytic activity (mAbs/min)", "setting": "fibrin clot; plasmin 5 mU", "value": 68, "unit": "mAbs/min"},
      {"measurement": "fibrinolytic activity (mAbs/min)", "setting": "fibrin clot; plasmin 50 mU", "value": 126, "unit": "mAbs/min"},
      {"measurement": "fibrinolytic activity (mAbs/min)", "setting": "fibrin clot; plasmin 500 mU", "value": 178, "unit": "mAbs/min"}
    ]}
  ]
}
